Key:
[1] = tested on: STING-mediated interferon (IFN) signal reporter gene in THP1-Blue™ ISG cells; assay: STING-mediated interferon (IFN) signal SEAP reporter gene assay in THP1-Blue ISG cells; assay type: cell-based, human; conditions: for EC50: Homo sapiens, 16 h incubation, SEAP reporter read at OD620nm; for Emax (OD620nm): highest OD620nm value generated by stimulation of the compound, 16 h; for agonistic effect on the STING-mediated Interferon (IFN) signal pathway: result in words
Source text: In this experiment, the activity of the SEAP (secreted embryonic alkaline phosphatase) reporter gene regulated by the IFN regulatory factor (interferon regulatory factor) was detected in the THP1-Blue™ ISG cells (InvivoGen) to evaluate the agonistic effect of the compounds to be tested on the STING-mediated IFN signal pathway at the cellular level.
The THP1-Blue™ ISG cells (InvivoGen) in the logarithmic phase were centrifuged, and resuspended in a cell culture solution to a density of 2×10^6 cells/ml. The cell suspension was inoculated in a 96-well cell culture plate (Corning) at 50 μL/well. The mother liquor of the compound to be tested was gradiently diluted with a cell culture solution to obtain a 2× working concentration diluted solution (control compounds 1 and 2 were diluted at a 3-fold gradient: 200, 66.67, 22.22, 7.41, 2.47, 0.82, 0.27 and 0 μM; compounds 1, 2, 4, 6, 8, and 23 were diluted at a 8-fold gradient: 60, 7.5, 0.94, 0.12, 0.015, 0.0018, 0.00023 and 0 μM; and compounds 3 and 5 were diluted at a 10-fold gradient: 10, 1, 0.1, 0.01, 0.001, 0.0001, 0.00001 and 0 μM). The 2× working concentration diluted solution of the compound was added into a 96-well plate (50 μl of the culture solution containing 2% DMSO was added into the negative control well) at 50 μL/well. The culture plate was then placed in a cell incubator, and incubated for 16 h. After the cell incubation, 10 μL of the cell culture supernatant was transferred to a 96-well plate, and a QUANTI-Blue (InvivoGen) solution was added at 90 μL/well. The cells were incubated at 37° C. for 3 h. The absorbance at 620 nm (OD620nm) was read with a microplate reader.
In the table, EC50 refers to the concentration of a compound when ODM620nm value generated by stimulation of the compound reaches half of Emax; and Emax refers to the highest OD620nm value generated by stimulation of the compound.

[2] = tested on: STING and its downstream proteins TBK1 and IRF3 in Raw264.7 cells; assay: Western blotting of phosphorylation of STING signal pathway proteins in mouse Raw264.7 cells; assay type: cell-based; conditions: 3 hours, protein blotting, FIGS. 6-7, result in words
Source text: In this experiment, the changes in the phosphorylation levels of STING and its downstream proteins TBK1 (TANK-binding kinase 1) and IRF3 (interferon regulatory factor 3) were detected by protein blotting to evaluate the agonistic effect of the test compounds on the STING signal pathway at the cellular level.
The Raw264.7 cells in the logarithmic phase were centrifuged, and resuspended in a cell culture solution to a density of 1.6×10^6 cells/mL. The cell suspension was inoculated into a 6-well cell culture plate (Corning) at 1 mL/well. The compound to be tested was diluted with a cell culture solution to 2× working solution concentration (control compounds 1 and 2: 60 μM; compound 8: 0.6 μM, 6 μM, and 60 μM; compounds 2, 4 and 6: 6 μM, 20 μM, and 60 μM). 1 mL of the diluted solution of the compound was added into a 6-well plate (1 mL of the culture solution containing 2% DMSO was added into the negative control well). The plate was placed in a cell incubator, and incubated for 3 hours. After the incubation, the cells were collected by centrifugation, lysed with 60 μL cell lysis buffer (CST) for 30 minutes, and centrifuged at 12000 rpm for 15 minutes. The supernatant was collected to determine the protein concentration, and then an appropriate amount of 5× protein loading buffer was added. The mixture was heated at 95° C. for 10 minutes to prepare a protein electrophoresis sample. Finally, protein blotting was performed to detect the phosphorylation level of the corresponding protein. The primary antibodies used in the protein blotting were purchased from CST: STING (D2P2F) rabbit mAb, Phospho-STING (Ser365) rabbit mAb, Phospho-IRF3 (Ser396) (D601M) rabbit mAb, IRF3 (D83B9) rabbit mAb, TBK1/NAK (D1B4) rabbit mAb, Phospho-TBK1/NAK (Ser172) (D52C2) XPV rabbit mAb, GAPDH (D16H11) rabbit mAb; and the secondary antibody horseradish peroxidase-conjugated goat anti-rabbit IgG (H+L) was purchased from Zsgb-bio.

hSTING protein = molecular target: T1, hSTING protein (Homo sapiens, UniProt Q86WV6); assay: Human STING binding kit (HTRF) competitive binding assay; conditions: for Ki: calculated as Ki=1/2*IC50 per kit instructions; for IC50: competition with d2-STING-ligand for 6×His-hSTING, HTRF, 3 h at 25° C.; for binding affinity to the hSTING protein: result in words
T1 construct: purchased Cisbio
T1 sequence (Q86WV6 whole entry H232R): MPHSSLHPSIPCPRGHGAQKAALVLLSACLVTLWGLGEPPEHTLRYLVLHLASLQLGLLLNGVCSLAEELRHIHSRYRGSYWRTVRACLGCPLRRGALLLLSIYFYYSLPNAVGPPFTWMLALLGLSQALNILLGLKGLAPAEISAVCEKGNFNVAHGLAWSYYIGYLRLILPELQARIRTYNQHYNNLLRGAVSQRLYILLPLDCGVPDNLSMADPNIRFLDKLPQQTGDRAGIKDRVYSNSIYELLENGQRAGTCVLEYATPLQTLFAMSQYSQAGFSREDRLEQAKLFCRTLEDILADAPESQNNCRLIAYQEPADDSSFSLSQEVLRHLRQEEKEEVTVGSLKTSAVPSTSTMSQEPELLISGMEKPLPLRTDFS
Source text: In this experiment, the capability of the compound and the specific ligand (d2-STING-ligand) in a Human STING binding kit from Cisbio for competitively binding to the 6×His-hSTING protein was detected using the Human STING binding kit (HTRF method), so as to evaluate the binding affinity between the compound to be tested and the hSTING protein.
The compound was gradiently diluted with a dilution buffer in the Human STING binding kit (the diluent buffer reagent) to obtain a 4× working concentration diluted solution. […] The 6×His-hSTING protein (50× in the mother liquor) was diluted to 1× with the detection buffer in the Human STING binding kit (the detection buffer reagent). 5 μl of the diluted solution was added into the corresponding wells of a 384-well plate, and the well with no protein and no compound was set as a negative control well (min), while the well with the protein and no compound was set as a positive control well (max). The d2-STING-ligand and Tb^3+-anti-6×His-antibody (both 50× in the mother liquor) were diluted to 1× with the detection buffer in the Human STING binding kit (the detection buffer reagent), and mixed uniformly at a ratio of 1:1. 10 μl of the mixed solution was added to the corresponding wells of a 384-well plate. The plate was sealed and incubated at room temperature (25° C.) for 3 h. A BMG microplate reader was used to read HTRF, and the ratio was calculated according to the following formula: Ratio=signal665nm/signal620nm×10000. […] IC50 was calculated through log(inhibitor) vs. response—Variable slope fitting by the Graphpad Prism software.

Row | SMILES | EC50 [1] [nM] | Emax (OD620nm) [1] [OD620nm] | agonistic effect on the STING-mediated Interferon (IFN) signal pathway [1] | agonistic effect on the phosphorylation levels of STING, TBK1 and IRF3 [2] | Ki (hSTING protein) [nM] | IC50 (hSTING protein) [nM] | binding affinity to the hSTING protein (hSTING protein)
1 | COc1cc2sc(C(=O)CCC(=O)O)cc2cc1OCCCOc1cc2cc(C(=O)N(C)CCC(=O)O)sc2cc1OC [Compound 8, 4-(5-(3-((2-((2-carboxyethyl)(methyl)carbamoyl)-6-methoxybenzo[b]thiophen-5-yl)oxy)propoxy)-6-methoxybenzo[b]thiophen-2-yl)-4-oxobutanoic Acid] | 55.3 | 1.73 | strong agonistic effects | strong agonistic effects | 0.069 | 0.139 | strong binding affinity
2 | COc1cc2sc(C(=O)CCC(=O)O)cc2cc1OCCCOc1cc2sc(C(=O)N(C)CCC(=O)O)cc2cc1OC [Compound 6, 4-(5-(3-((2-((2-carboxyethyl)(methyl)carbamoyl)-5-methoxybenzo[b]thiophen-6-yl)oxy)propoxy)-6-methoxybenzo[b]thiophen-2-yl)-4-oxobutanoic acid] | 74.5 | 1.88 | strong agonistic effects | strong agonistic effects | 4.55 | 9.1 | strong binding affinity
3 | COc1cc2sc(C(=O)N(C)CCC(=O)O)cc2cc1OCCCOc1cc2sc(C(=O)CCC(=O)O)cc2cc1OC [Compound 4, 4-(6-(3-((2-((2-carboxyethyl)(methyl)carbamoyl)-6-methoxybenzo[b]thiophen-5-yl)oxy)propoxy)-5-methoxybenzo[b]thiophen-2-yl)-4-oxobutanoic acid] | 35.5 | 1.97 | strong agonistic effects | strong agonistic effects | 16.1 | 32.2 | strong binding affinity
